Test results: patent US7351733B2, “Tetrahydrocarbazole derivatives and their pharmaceutical use” (SmithKline Beecham Corporation, priority 2003, dated 2008)
pIC50: −log10 of the molar value. Counter-ions that a name gives are not always drawn. Like-named read-outs stand apart in the source and are kept apart here.

Test system: episomal HPV-16 DNA in W12-20850 cells
Assay: W-12 cellular assay (episomal HPV-16 DNA, hybrid capture)
Type: cell-based, HPV16
Conditions: for pIC50: Human papillomavirus 16, 96 h, W12-20850 cells, four days incubation, episomal HPV-16 DNA quantified by hybrid capture, inhibition relative to untreated control cells, read-out: W-12; for IC50: Human papillomavirus 16, W12-20850, 96 h, read-out: W-12 (nM)

SMILES | pIC50 | IC50 [nM]
Fc1ccc(NC2CCCc3c2[nH]c2ccc(Cl)cc32)cc1 (stereo not drawn) [Example 17, 6-Chloro-N-(4-fluorophenyl)-2,3,4,9-tetrahydro-1H-carbazol-1-amine] | 7.64 | 
FC(F)(F)c1ccc(NC2CCCc3c2[nH]c2ccc(Br)cc32)nc1 (stereo not drawn) [Example 34, 6-Bromo-N-[5-(trifluoromethyl)pyridin-2-yl]-2,3,4,9-tetrahydro-1H-carbazol-1-amine] | > 8.00 | 
FC(F)(F)c1ccc2[nH]c3c(c2c1)CCCC3Nc1ccccc1 (stereo not drawn) [Example 43, N-Phenyl-6-(trifluoromethyl)-2,3,4,9-tetrahydro-1H-carbazol-1-amine hydrochloride] |  | 51
c1cnc(NC2CCCc3c2[nH]c2ccccc32)nc1 (stereo not drawn) [Example 37, N-Pyrimidin-2-yl-2,3,4,9-tetrahydro-1H-carbazol-1-amine] | 5.35 | 
Clc1ccc(NC2CCCc3c2[nH]c2ccc(Br)cc32)cc1Cl (stereo not drawn) [Example 51, 6-Bromo-N-(3,4-dichlorophenyl)-2,3,4,9-tetrahydro-1H-carbazol-1-amine] | 7.66 | 
Brc1ccc2[nH]c3c(c2c1)CCCC3Nc1ccc2[nH]ccc2c1 (stereo not drawn) [Example 47, 6-Bromo-N-(1H-indol-5-yl)-2,3,4,9-tetrahydro-1H-carbazol-1-amine] | 6.95 | 
COc1cccc(NC2CCCc3c2[nH]c2ccc(Br)cc32)c1 (stereo not drawn) [Example 45, 6-Bromo-N-(3-methoxyphenyl)-2,3,4,9-tetrahydro-1H-carbazol-1-amine] | > 8.00 | 
COc1ccc(NC2CCCc3c2[nH]c2ccc(Br)cc32)cc1 (stereo not drawn) [Example 19, 6-Bromo-N-(4-methoxyphenyl)-2,3,4,9-tetrahydro-1H-carbazol-1-amine] | > 8.00 | 
Brc1ccc2[nH]c3c(c2c1)CCCC3Nc1ccccn1 (stereo not drawn) [Example 27, 6-Bromo-N-pyridin-2-yl-2,3,4,9-tetrahydro-1H-carbazol-1-amine hydrochloride] |  | 37
Brc1ccc2[nH]c3c(c2c1)CCCC3Nc1ncccn1 (stereo not drawn) [Example 22, 6-Bromo-N-pyrimidin-2-yl-2,3,4,9-tetrahydro-1H-carbazol-1-amine hydrochloride] |  | 97
Brc1ccc2[nH]c3c(c2c1)CCCCC3Nc1ncccn1 (stereo not drawn) [Example 38, 2-Bromo-N-pyrimidin-2-yl-5,6,7,8,9,10-hexahydrocyclohepta[b]indol-6-amine] | > 8.00 | 
Cc1ccc2[nH]c3c(c2c1)CCCC3Nc1ncccn1 (stereo not drawn) [Example 29, 6-Methyl-N-pyrimidin-2-yl-2,3,4,9-tetrahydro-1H-carbazol-1-amine] | 6.60 | 
Fc1ccc(NC2CCCc3c2[nH]c2ccc(Br)cc32)cc1 (stereo not drawn) [Example 21, 6-Bromo-N-(4-fluorophenyl)-2,3,4,9-tetrahydro-1H-carbazol-1-amine] | > 8.00 | 
N#Cc1ccc(NC2CCCc3c2[nH]c2ccc(Br)cc32)nc1 (stereo not drawn) [Example 35, 6-[(6-Bromo-2,3,4,9-tetrahydro-1H-carbazol-1-yl)amino]nicotinonitrile] | 7.52 | 
Brc1ccc2[nH]c3c(c2c1)CCCC3Nc1ccccc1 (stereo not drawn) [Example 13, 6-Bromo-N-phenyl-2,3,4,9-tetrahydro-1H-carbazol-1-amine] | 8.00 | 
COc1cc(OC)nc(NC2CCCc3c2[nH]c2ccc(C)cc32)n1 (stereo not drawn) [Example 31, N-(4,6-Dimethoxypyrimidin-2-yl)-6-methyl-2,3,4,9-tetrahydro-1H-carbazol-1-amine hydrochloride] |  | 70
COc1cc(OC)nc(NC2CCCc3c2[nH]c2ccc(Cl)cc32)n1 (stereo not drawn) [Example 24, 6-Chloro-N-(4,6-dimethoxypyrimidin-2-yl)-2,3,4,9-tetrahydro-1H-carbazol-1-amine] | 7.52 | 

SMILES | pIC50 | IC50 [nM]
Fc1cccc(NC2CCCc3c2[nH]c2ccc(Br)cc32)c1 (stereo not drawn) [Example 46, 6-Bromo-N-(3-fluorophenyl)-2,3,4,9-tetrahydro-1H-carbazol-1-amine] | > 8.00 | 
COc1ccc(NC2CCCc3c2[nH]c2ccc(Cl)cc32)cc1 (stereo not drawn) [Example 15, 6-Chloro-N-(4-methoxyphenyl)-2,3,4,9-tetrahydro-1H-carbazol-1-amine] | 8.00 | 
Clc1ccccc1NC1CCCc2c1[nH]c1ccc(Br)cc21 (stereo not drawn) [Example 49, 6-Bromo-N-(2-chlorophenyl)-2,3,4,9-tetrahydro-1H-carbazol-1-amine] | > 8.00 | 
Cc1cc(C)nc(NC2CCCc3c2[nH]c2ccc(Cl)cc32)n1 (stereo not drawn) [Example 26, 6-Chloro-N-(4,6-dimethylpyrimidin-2-yl)-2,3,4,9-tetrahydro-1H-carbazol-1-amine] | 7.21 | 
Cc1ccc(NC2CCCc3c2[nH]c2ccc(Cl)cc32)cc1 (stereo not drawn) [Example 18, 6-Chloro-N-(4-methylphenyl)-2,3,4,9-tetrahydro-1H-carbazol-1-amine] | 7.72 | 
Brc1ccc2[nH]c3c(c2c1)CCCC3Nc1nc2ccccc2s1 (stereo not drawn) [Example 36, N-(1,3-Benzothiazol-2-yl)-6-bromo-2,3,4,9-tetrahydro-1H-carbazol-1-amine] | 7.14 | 
COc1ccccc1NC1CCCc2c1[nH]c1ccc(Br)cc21 (stereo not drawn) [Example 48, 6-Bromo-N-(2-methoxyphenyl)-2,3,4,9-tetrahydro-1H-carbazol-1-amine] | 7.24 | 
Cc1ccnc(NC2CCCc3c2[nH]c2ccc(Cl)cc32)n1 (stereo not drawn) [Example 25, 6-Chloro-N-(4-methylpyrimidin-2-yl)-2,3,4,9-tetrahydro-1H-carbazol-1-amine] | 7.46 | 
Clc1ccc2[nH]c3c(c2c1)CCCC3Nc1ccccc1 (stereo not drawn) [Example 14, 6-Chloro-N-phenyl-2,3,4,9-tetrahydro-1H-carbazol-1-amine] | > 8.00 | 
Clc1ccc2[nH]c3c(c2c1)CCCC3Nc1ncccn1 (stereo not drawn) [Example 23, 6-Chloro-N-pyrimidin-2-yl-2,3,4,9-tetrahydro-1H-carbazol-1-amine] | 7.36 | 
Fc1ccccc1NC1CCCc2c1[nH]c1ccc(Br)cc21 (stereo not drawn) [Example 50, 6-Bromo-N-(2-fluorophenyl)-2,3,4,9-tetrahydro-1H-carbazol-1-amine] | 7.15 | 
Cc1cc(C)nc(NC2CCCc3c2[nH]c2ccc(Br)cc32)n1 (stereo not drawn) [Example 32, 6-Bromo-N-(4,6-dimethylpyrimidin-2-yl)-2,3,4,9-tetrahydro-1H-carbazol-1-amine hydrochloride] |  | 12
FC(F)(F)c1cnc(NC2CCCc3c2[nH]c2ccc(Br)cc32)nc1 (stereo not drawn) [Example 33, 6-Bromo-N-[5-(trifluoromethyl)pyrimidin-2-yl]-2,3,4,9-tetrahydro-1H-carbazol-1-amine] | 7.36 | 
Clc1ccc(NC2CCCc3c2[nH]c2ccc(Br)cc32)cc1 (stereo not drawn) [Example 20, 6-Bromo-N-(4-chlorophenyl)-2,3,4,9-tetrahydro-1H-carbazol-1-amine] | > 8.00 | 
Clc1ccc(NC2CCCc3c2[nH]c2ccc(Cl)cc32)cc1 (stereo not drawn) [Example 16, 6-Chloro-N-(4-chlorophenyl)-2,3,4,9-tetrahydro-1H-carbazol-1-amine] | 7.85 | 
CCCc1cnc(NC2CCCc3c2[nH]c2ccc(Br)cc32)nc1 (stereo not drawn) [Example 28, 6-Bromo-N-(5-propylpyrimidin-2-yl)-2,3,4,9-tetrahydro-1H-carbazol-1-amine] | 7.82 | 
